Experimental findings from ChEMBL document CHEMBL1201862, “PubChem BioAssay data set” (2004) are described below.

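Values below derive from 48-hour exposures of cells grown in 96-well plates, with endpoints linearly interpolated between the two concentrations bracketing the appropriate inhibition level. GI50: concentration for 50% inhibition of growth.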 Activity calls are given as the source filed them. Rule as the data show it: active = GI50 up to about 1.1 µM and inactive = higher.

Some test systems named below: A549; ACHN; DU-145; HCT-116; HL-60; HOP-62; HT-29; IGROV-1; KM12; LOX IMVI; MDA-N; NCI-H522; NCI/ADR-RES; OVCAR-5; OVCAR-8; SK-MEL-28; SR; SW-620; TK-10; UACC-257.
Experiment in all cases: NCI anticancer screen, dose series, 48 h

In the case of `CCOC(=O)N1N(c2ccccc2)C(=O)C1(c1ccccc1)c1ccccc1`, the GI50 in the assay with A549 is > 100 µM (inactive); in the assay on ACHN it was > 100 µM (inactive); in the assay with DU-145, > 100 µM (inactive); in the assay on HCT-116, 17.1 µM (inactive); in the assay with HL-60, 8.3 µM (inactive); in the assay on HOP-62 it was 14.9 µM (inactive). Further, the GI50 in the assay on HT-29 is 22 µM (inactive); in the assay with IGROV-1, > 100 µM (inactive); in the assay on KM12, 73.5 µM (inactive); with LOX IMVI, 70.6 µM (inactive); with MDA-N it was > 100 µM (inactive); with NCI-H522, 44.8 µM (inactive). Besides, the GI50 in the assay on NCI/ADR-RES is > 100 µM (inactive); with OVCAR-5, > 100 µM (inactive); in the assay on OVCAR-8 it was > 100 µM (inactive); with SK-MEL-28, > 100 µM (inactive); in the assay on SR, 87.5 µM (inactive); in the assay with SW-620, > 100 µM (inactive). In addition, the GI50 in the assay with TK-10 and with UACC-257 was > 100 µM (inactive) throughout.

On to `c1ccc2[nH]c(C3CCCCO3)nc2c1` (centres undefined), for which the GI50 in the assay with A549, with ACHN, in the assay on DU-145, in the assay with HCT-116, with HL-60 and with HOP-62 was > 100 µM (inactive) in each case. Moreover, the GI50 in the assay with HT-29 was > 100 µM (inactive); in the assay on IGROV-1 it was > 100 µM (inactive); with KM12, 50.4 µM (inactive); in the assay on LOX IMVI, > 100 µM (inactive); with MDA-N, > 100 µM (inactive); with NCI-H522, > 100 µM (inactive). The GI50 with NCI/ADR-RES, with OVCAR-5, in the assay on OVCAR-8, in the assay on SK-MEL-28, in the assay with SR and in the assay on SW-620 was > 100 µM (inactive) each time. For the same molecule, the GI50 in the assay with TK-10 and with UACC-257 was > 100 µM (inactive) throughout.

Take `CN1C(=O)N(c2ccccc2)C2(CCN(CC3COc4ccccc4O3)CC2)C1=O` (centres undefined): the GI50 in the assay with A549 is > 100 µM (inactive); in the assay on ACHN, > 100 µM (inactive); with DU-145, > 100 µM (inactive); with HCT-116, 96.8 µM (inactive); in the assay on HL-60 it was 39.2 µM (inactive); in the assay on HOP-62 it was > 100 µM (inactive). The GI50 with HT-29 was 95.1 µM (inactive); in the assay on IGROV-1, > 100 µM (inactive); with KM12 it was > 100 µM (inactive); with LOX IMVI it was > 100 µM (inactive); in the assay on MDA-N, > 100 µM (inactive); in the assay with NCI-H522, > 100 µM (inactive). Besides, the GI50 in the assay with NCI/ADR-RES was > 100 µM (inactive); with OVCAR-5, > 100 µM (inactive); with OVCAR-8 it was > 100 µM (inactive); with SK-MEL-28, > 100 µM (inactive); in the assay with SR it was > 100 µM (inactive); in the assay with SW-620 it was 4.5 µM (inactive). Besides, the GI50 in the assay with TK-10 was > 100 µM (inactive); with UACC-257 it was 82.2 µM (inactive).

With `CCOC(=O)C(=CNc1ccc(F)c(F)c1)C(=O)OCC`, the GI50 with A549 is > 100 µM (inactive); with ACHN, > 100 µM (inactive); in the assay on DU-145 it was > 100 µM (inactive); with HCT-116, > 100 µM (inactive); in the assay with HL-60, 66.1 µM (inactive); in the assay on HOP-62, > 100 µM (inactive). Moreover, the GI50 in the assay on HT-29 was 94 µM (inactive); in the assay on IGROV-1, > 100 µM (inactive); in the assay on KM12, > 100 µM (inactive); in the assay on LOX IMVI, > 100 µM (inactive); in the assay with MDA-N it was 93.1 µM (inactive); with NCI-H522, 81.7 µM (inactive). For the same molecule, the GI50 in the assay on NCI/ADR-RES was > 100 µM (inactive); in the assay on OVCAR-5 it was > 100 µM (inactive); with OVCAR-8 it was > 100 µM (inactive); in the assay on SK-MEL-28 it was > 100 µM (inactive); with SR, 39.2 µM (inactive); in the assay on SW-620, > 100 µM (inactive). For the same molecule, the GI50 with TK-10 and in the assay on UACC-257 was > 100 µM (inactive) throughout.

For `CN(C)CCNC(=O)c1ccc(Cl)c2cc3ccccc3nc12`, the GI50 in the assay with A549 was 0.389 µM (active); in the assay on ACHN, 0.424 µM (active); in the assay with DU-145, 0.991 µM (active); in the assay on HCT-116 it was 0.408 µM (active); with HL-60, 0.608 µM (active); in the assay with HOP-62, 1 µM (active). Besides, the GI50 was 0.422 µM (active) in the assay on HT-29; 0.708 µM (active) with IGROV-1; 0.807 µM (active) in the assay with KM12; 0.23 µM (active) in the assay with LOX IMVI; 0.889 µM (active) in the assay with MDA-N; 0.612 µM (active) in the assay on NCI-H522. In addition, the GI50 with NCI/ADR-RES was 0.927 µM (active); in the assay with OVCAR-5 it was 1.83 µM (inactive); in the assay on OVCAR-8 it was 0.481 µM (active); with SK-MEL-28, 1.82 µM (inactive); with SR it was 0.339 µM (active); in the assay with SW-620 it was 0.453 µM (active). Besides, the results for the GI50 in the assay on TK-10 and in the assay on UACC-257 were 1.07 µM (active) and 0.885 µM (active), respectively.

As for `Cc1ccc2c(c1)C(=O)/C(=C\c1ccc(Cl)cc1)CCS2(=O)=O`, the GI50 in the assay on A549 was 4.06 µM (inactive); in the assay with ACHN, 1.95 µM (inactive); in the assay on DU-145, 2.66 µM (inactive); with HCT-116, 1.65 µM (inactive); with HL-60, 2.66 µM (inactive); in the assay on HOP-62, 6.67 µM (inactive). The GI50 was 2.55 µM (inactive) in the assay with HT-29; 2.65 µM (inactive) in the assay on IGROV-1; 2.66 µM (inactive) in the assay on KM12; 2.54 µM (inactive) in the assay on LOX IMVI; 4.81 µM (inactive) in the assay with MDA-N; 1.52 µM (inactive) in the assay with NCI-H522. Moreover, the GI50 with NCI/ADR-RES was 2.18 µM (inactive); with OVCAR-5, 12.4 µM (inactive); with OVCAR-8, 1.95 µM (inactive); with SK-MEL-28 it was 4.59 µM (inactive); with SR, 1.66 µM (inactive); in the assay with SW-620, 3.18 µM (inactive). Also, the GI50 with TK-10 was 2.1 µM (inactive); in the assay on UACC-257, 2.65 µM (inactive).

On to `CCCN(C(=O)c1c(Cl)nnc(Cl)c1C(=O)c1cc(Cl)nnc1Cl)c1cc(Cl)nnc1Cl`, for which the GI50 with A549 is 32.1 µM (inactive); in the assay with ACHN, 12.9 µM (inactive); with DU-145, 7.91 µM (inactive); with HCT-116 it was 6.87 µM (inactive); with HL-60 it was 2.48 µM (inactive); in the assay on HOP-62, 19 µM (inactive). The GI50 in the assay on HT-29 is 16.7 µM (inactive); in the assay on IGROV-1, 7.52 µM (inactive); with KM12 it was 11.5 µM (inactive); with LOX IMVI, 5.47 µM (inactive); with MDA-N, 6.7 µM (inactive); in the assay with NCI-H522, 3.24 µM (inactive). Further, the GI50 with NCI/ADR-RES is 6.7 µM (inactive); in the assay on OVCAR-5, 21 µM (inactive); with OVCAR-8, 2.29 µM (inactive); in the assay on SK-MEL-28 it was 12.9 µM (inactive); in the assay with SR it was 3.08 µM (inactive); in the assay on SW-620, 6.67 µM (inactive). Moreover, the GI50 with TK-10 is 18 µM (inactive); in the assay on UACC-257, 14.2 µM (inactive).

On to `CCCCCCCCCCCCCC(=O)OC(/C=C/C(C)C)C(O)C(O)C(OC)C(=O)NC1CCCCN(C)C1=O` (centres undefined), for which the GI50 in the assay with A549 is 0.575 µM (active); in the assay with ACHN, 4.31 µM (inactive); in the assay with DU-145 it was > 10 µM (inactive); with HCT-116 it was 0.927 µM (active); in the assay with HL-60 it was 1.74 µM (inactive); in the assay with HOP-62 it was 3.15 µM (inactive). The GI50 in the assay on HT-29 was 6.3 µM (inactive); with IGROV-1 it was 0.457 µM (active); in the assay with KM12, 7.71 µM (inactive); in the assay on LOX IMVI, 7.23 µM (inactive); in the assay on MDA-N it was > 10 µM (inactive); in the assay on NCI-H522, 8.73 µM (inactive). Also, the GI50 in the assay with NCI/ADR-RES was > 10 µM (inactive); in the assay on OVCAR-5, 4.36 µM (inactive); with OVCAR-8 it was 5.28 µM (inactive); with SK-MEL-28 it was 3.61 µM (inactive); with SR, 0.773 µM (active); in the assay with SW-620 it was 1.36 µM (inactive). The figures for the GI50 with TK-10 and in the assay with UACC-257 were 7.05 µM (inactive) and 4.84 µM (inactive), respectively.

For the molecule `CN(C(=O)C12C3C4(C(=O)O)C1(C(=O)N(C)C(C)(C)C)C1C2(C(=O)O)C3(C(=O)N(C)C(C)(C)C)C14C(=O)N(C)C(C)(C)C)C(C)(C)C` (centres undefined), the GI50 with A549, in the assay on ACHN, in the assay on DU-145, in the assay on HCT-116, in the assay on HL-60 and with HOP-62 was > 100 µM (inactive) each time. The GI50 with HT-29, in the assay with IGROV-1, with KM12, with LOX IMVI, in the assay with MDA-N and with NCI-H522 was > 100 µM (inactive) in each case. The GI50 in the assay on NCI/ADR-RES, in the assay with OVCAR-5, in the assay on OVCAR-8, in the assay with SK-MEL-28, in the assay on SR and with SW-620 was > 100 µM (inactive) throughout. Moreover, the GI50 in the assay with TK-10 and in the assay with UACC-257 was > 100 µM (inactive) each time.

As to `Cc1cccc2c1Oc1cc(Cl)ccc1C2NC(=O)CCN1CCCCC1` (centres undefined), the GI50 was 18.7 µM (inactive) with A549; > 10 µM (inactive) with DU-145; 15.9 µM (inactive) with HCT-116; 15.7 µM (inactive) in the assay with HL-60; 14.3 µM (inactive) in the assay with HOP-62; 12.6 µM (inactive) with HT-29. In addition, the GI50 in the assay on IGROV-1 is > 10 µM (inactive); in the assay on KM12, 16.3 µM (inactive); with LOX IMVI, 15.6 µM (inactive); in the assay with MDA-N, 16.3 µM (inactive); in the assay with NCI-H522, 16.9 µM (inactive); with NCI/ADR-RES, 15.5 µM (inactive). The GI50 with OVCAR-5 was 17.8 µM (inactive); in the assay on OVCAR-8, 16.3 µM (inactive); in the assay on SK-MEL-28, 15.6 µM (inactive); in the assay on SR it was 16.2 µM (inactive); in the assay on SW-620, 17.8 µM (inactive); in the assay on TK-10, 15.8 µM (inactive). Further, the GI50 in the assay on UACC-257 is 16 µM (inactive).
